Experimental data taken from patent US9708314B2, “Heterocyclic amide compound” (NISSAN CHEMICAL INDUSTRIES, LTD., priority 2013, dated 2017).

Assays:
Format in all cases: in vivo
[1] = system: Scirpus juncoides; assay: Test Example 1: herbicidal activity, application before weed generation in submerged conditions; conditions: Application herbicide amount 320 g/ha; Seventeenth Table
Summary of the method: (§1)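 Rating, on a six-step scale from almost no effect (0) to almost completely withered (5), was made three weeks after pre-emergence treatment. Treatment was surface application to flooded pots at g/ha rates, with plants kept at 25° C. to 30° C.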

[2] = system: Echinochloa oryzacola Vasing.; assay: as above; conditions: Application herbicide amount 320 g/ha; Seventeenth Table
Summary of the method: as §1

[3] = system: Monochoria vaginalis; assay: as above; conditions: Application herbicide amount 320 g/ha; Seventeenth Table
Summary of the method: as §1

[4] = system: directly sowed Oryza sativa; assay: Test Example 3: effect on crop by application to foliage (Wagner pot, water depth 0.1-0.5 cm); conditions: Nineteenth Table
Summary of the method: (§2)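 Alluvial soil in 1/10000 are Wagner pots, sown and grown 14 days in a 25–30 °C greenhouse. An emulsifiable concentrate diluted in water to the set dose (g/ha) was sprayed on stems and leaves. Effect scored three weeks later on a 0–5 scale: 5 = ≥90% herbicidal ratio, 0 = ≤5%.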

[5] = system: Leptochloa chinensis; assay: Test Example 3: herbicidal effect by application to foliage (Wagner pot, water depth 0.1-0.5 cm); conditions: Nineteenth Table
Summary of the method: as §2

[6] = system: Cyperus difformis; assay: as above; conditions: Nineteenth Table
Summary of the method: as §2

[7] = system: Echinochloa crus-galli var. crus-galli; assay: as above; conditions: Nineteenth Table
Summary of the method: as §2

[8] = system: Stellaria media; assay: Test Example 4: herbicidal effect by application to foliage (diluvial soil, plastic box); conditions: application to foliage, application herbicide amount 320 g/ha
Summary of the method: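 Emulsion-formulated compound, diluted to a predetermined g/ha dose, applied by small sprayer to leaves and stems of 14-day-old seedlings grown in sterilized diluvial soil. Effect rated on 0–5 herbicidal-ratio scale three weeks on.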

[9] = system: transplanted Oryza sativa; assay: Test Example 1: effect on crop, application before weed generation in submerged conditions; conditions: Application herbicide amount 320 g/ha; Seventeenth Table
Summary of the method: as §1

[10] = application herbicide amount 320 g/ha
[11] = application herbicide amount 400 g/ha

Structure (SMILES)	B: Scirpus juncoides (herbicidal effect grade) [1]	A: Echinochloa oryzicola Vasing. (herbicidal effect grade) [2]	C: Monochoria vaginalis (herbicidal effect grade) [3]	b (directly sowed Oryza sativa) effect on crop grade [4, 10]	D (Leptochloa chinensis) herbicidal ratio grade [5, 10]	E (Cyperus difformis) herbicidal ratio grade [6, 10]	H (Echinochloa crus-galli var. crus-galli) herbicidal ratio grade [7, 10]	P (Stellaria media) herbicidal effect [8]	a: transplanted Oryza sativa (effect on crop grade) [9]	b (directly sowed Oryza sativa) effect on crop grade [4, 11]	D (Leptochloa chinensis) herbicidal ratio grade [5, 11]	E (Cyperus difformis) herbicidal ratio grade [6, 11]	H (Echinochloa crus-galli var. crus-galli) herbicidal ratio grade [7, 11]
Cc1ccc(-c2nnc3c(C(=O)Nc4nnc(C)o4)ccc(C(F)(F)F)n23)cc1 [1-043]	3 (Herbicidal ratio of 40% or more and less than 70%)	5 (Herbicidal ratio of 90% or more (almost completely withered))	3 (Herbicidal ratio of 40% or more and less than 70%)	5 (Herbicidal ratio of 90% or more (almost completely withered))	4 (Herbicidal ratio of 70% or more and less than 90%)	5 (Herbicidal ratio of 90% or more (almost completely withered))	5 (Herbicidal ratio of 90% or more (almost completely withered))	4 (Herbicidal ratio of 70% or more and less than 90%)	3 (Herbicidal ratio of 40% or more and less than 70%)	–	–	–	–
Cc1nnc(NC(=O)c2ccc(C(F)(F)F)n3c(C[S+](C)[O-])nnc23)o1 (stereo not drawn) [1-036]	3 (Herbicidal ratio of 40% or more and less than 70%)	4 (Herbicidal ratio of 70% or more and less than 90%)	3 (Herbicidal ratio of 40% or more and less than 70%)	4 (Herbicidal ratio of 70% or more and less than 90%)	5 (Herbicidal ratio of 90% or more (almost completely withered))	5 (Herbicidal ratio of 90% or more (almost completely withered))	5 (Herbicidal ratio of 90% or more (almost completely withered))	5 (Herbicidal ratio of 90% or more (almost completely withered))	4 (Herbicidal ratio of 70% or more and less than 90%)	–	–	–	–
Cc1nnc(NC(=O)c2ccc(C(F)(F)F)n3c(SC(C)C)nnc23)o1 [1-033]	4 (Herbicidal ratio of 70% or more and less than 90%)	5 (Herbicidal ratio of 90% or more (almost completely withered))	3 (Herbicidal ratio of 40% or more and less than 70%)	1 (Herbicidal ratio of 5% or more and less than 20%)	5 (Herbicidal ratio of 90% or more (almost completely withered))	5 (Herbicidal ratio of 90% or more (almost completely withered))	5 (Herbicidal ratio of 90% or more (almost completely withered))	5 (Herbicidal ratio of 90% or more (almost completely withered))	0 (Herbicidal ratio of 5% or less (almost no effect))	–	–	–	–
CC[S+]([O-])c1nnc2c(C(=O)Nc3nnc(C)o3)ccc(C(F)(F)F)n12 (stereo not drawn) [1-034]	4 (Herbicidal ratio of 70% or more and less than 90%)	4 (Herbicidal ratio of 70% or more and less than 90%)	4 (Herbicidal ratio of 70% or more and less than 90%)	5 (Herbicidal ratio of 90% or more (almost completely withered))	5 (Herbicidal ratio of 90% or more (almost completely withered))	5 (Herbicidal ratio of 90% or more (almost completely withered))	5 (Herbicidal ratio of 90% or more (almost completely withered))	5 (Herbicidal ratio of 90% or more (almost completely withered))	3 (Herbicidal ratio of 40% or more and less than 70%)	–	–	–	–
CSc1nnc2c(C(=O)Nc3nnc(C)o3)ccc(C(F)(F)F)n12 [1-018, N-(5-Methyl-1,3,4-oxadiazol-2-yl)-3-(methylthio)-5-(trifluoromethyl)-[1,2,4]triazol o[4,3-a]pyridine-8-carboxamide]	3 (Herbicidal ratio of 40% or more and less than 70%)	1 (Herbicidal ratio of 5% or more and less than 20%)	5 (Herbicidal ratio of 90% or more (almost completely withered))	2 (Herbicidal ratio of 20% or more and less than 40%)	4 (Herbicidal ratio of 70% or more and less than 90%)	4 (Herbicidal ratio of 70% or more and less than 90%)	4 (Herbicidal ratio of 70% or more and less than 90%)	4 (Herbicidal ratio of 70% or more and less than 90%)	0 (Herbicidal ratio of 5% or less (almost no effect))	–	–	–	–
CCSc1nnc2c(C(=O)Nc3nnc(C)o3)ccc(C(F)(F)F)n12 [1-032]	3 (Herbicidal ratio of 40% or more and less than 70%)	5 (Herbicidal ratio of 90% or more (almost completely withered))	2 (Herbicidal ratio of 20% or more and less than 40%)	2 (Herbicidal ratio of 20% or more and less than 40%)	5 (Herbicidal ratio of 90% or more (almost completely withered))	5 (Herbicidal ratio of 90% or more (almost completely withered))	5 (Herbicidal ratio of 90% or more (almost completely withered))	5 (Herbicidal ratio of 90% or more (almost completely withered))	2 (Herbicidal ratio of 20% or more and less than 40%)	–	–	–	–
CCC(CC)c1nnc2c(C(=O)Nc3nnc(C)o3)ccc(C(F)(F)F)n12 [1-011]	4 (Herbicidal ratio of 70% or more and less than 90%)	5 (Herbicidal ratio of 90% or more (almost completely withered))	5 (Herbicidal ratio of 90% or more (almost completely withered))	–	–	–	–	5 (Herbicidal ratio of 90% or more (almost completely withered))	1 (Herbicidal ratio of 5% or more and less than 20%)	0 (Herbicidal ratio of 5% or less (almost no effect))	5 (Herbicidal ratio of 90% or more (almost completely withered))	5 (Herbicidal ratio of 90% or more (almost completely withered))	5 (Herbicidal ratio of 90% or more (almost completely withered))
Cc1nnc(NC(=O)c2ccc(C(F)F)n3c(C(C)C)nnc23)o1 [1-053]	3 (Herbicidal ratio of 40% or more and less than 70%)	2 (Herbicidal ratio of 20% or more and less than 40%)	2 (Herbicidal ratio of 20% or more and less than 40%)	0 (Herbicidal ratio of 5% or less (almost no effect))	4 (Herbicidal ratio of 70% or more and less than 90%)	4 (Herbicidal ratio of 70% or more and less than 90%)	4 (Herbicidal ratio of 70% or more and less than 90%)	2 (Herbicidal ratio of 20% or more and less than 40%)	0 (Herbicidal ratio of 5% or less (almost no effect))	–	–	–	–
